# Data as given in patent publication US11261190B2, “Dihydropyrimidine compounds and uses thereof in medicine” (SUNSHINE LAKE PHARMA CO., LTD., priority 2017, dated 2022).
# How the values were obtained:
# HBV = assay: Anti HBV activity in vitro, viral DNA from HepG2.2.15 cells quantified by qPCR; format: cell-based; details: Hepatitis B virus, qPCR of viral DNA in supernatant, read-out: EC50 against HBV replication
# Procedure: Test 1: Test Method of EC50 of Anti HBV
# HBV Cell Line and Culture Conditions
# HepG2.2.15 (SELLS, PNAS, 1987 and SELLS, JV, 1988) chromosomes have an integrated complete HBV genome, and stably express viral RNA and viral protein. HepG2.2.15 cells can secrete mature HBV particles, HBsAg and HBeAg to medium. HepG2.2.15 cells were cultured in DMEM containing 10% fetal bovine serum, 100 U/mL penicillin, 100 U/mL streptomycin, 1% non essential amino acid, 1 mM sodium pyruvate and 300 µg/mL G418.
# Viral particles DNA secreted from HepG2.2.15 cells can be quantified by qPCR, and the effect of the compound on viral replication can be detected.
# Test of Anti HBV Activity In Vitro
# 8000 HepG 2.2.15 cells per well were seeded into a 96-well plate, the plate was cultured at 37° C. and 5% CO2 for 3 days till the cells grew to full wells. Old liquid medium can be removed and replaced with new medium (200 μL) on day 0.
# Formulating the compound and treating the cells in the experiment of anti virus: the compound was dissolved in DMSO to a concentration of 30 mM, and then the compound solution was diluted with DMSO to a concentration of […], and then eight dilutions at 4 fold were performed, the highest concentration is 800 μM. The serial diluted compound was added to the above plate at 1 μL per well, the highest final concentration in the experiment is 4 μM (200 fold dilution). TDF (tenofovir dipiroxil fumarate, Selleck, Cat S1400) has a highest concentration of 4 μM as a positive control. 1 μL of DMSO was added in to the positive control well at a final concentration of 0.5%, TDF was added in to the positive control well at a final concentration of 1 μM.
# Detection of Viral Genomic DNA by qPCR
# Primer: HBV-For-202, […]; HBV-Rev-315, […]. Copies of virus can be calculated using a standard curve plotted by using plasmid containing HBV genome and using SYBR Premix Ex Taq II Takara DRR081S kit and 1 μL cell culture supernatant as a template. EC50 values of the compound on viral replication were calculated by a four parametric nonlinear regression model using Graphpad Prism 5 software to manage concentration—viral copy number.
# [1] = Cytotoxicity in HepG2.2.15 cells (CellTiter Glo); format: cell-based; details: human, highest concentration 150 μM
# Procedure: Test 2: Cytotoxicity and Selectivity Index
# Methods of Testing Cytotoxicity and Selectivity Index
# The serial diluted compound was added to a 384 wells plate at 50 μL HepG2.2.15 cell per well (3000 cells per well), the highest final concentration in the experiment is 150 μM (200 fold dilution). The plate was cultured at 37° C. in an incubator with C02 for 4 days, and cytotoxicity of the compound was detected using CellTiter Glo agent.
# The cytotoxicity of the compound was calculated using the following formulate, cytotoxicity (%)=100−(detection value/mean of DMSO control wells values×100). CC50 values were calculated by a four parametric nonlinear regression model using Graphpad Prism 5 software to manage concentration−cytotoxicity (%). […]
Compound,EC50 (HBV),CC50 at 4 days [1]
"CCOC(=O)C1=C(CN2CCN3C(=O)N(c4ccc(CCC(=O)O)cc4)C[C@@H]3C2)NC(c2nccs2)=N[C@H]1c1ccc(F)cc1Cl [Example 23, 3-(4-((S)-7-(((R)-6-(2-chloro-4-fluorophenyl)-5-(ethoxycarbonyl)-2-(thiazol-2-yl)-3,6-dihydropyrimidin-4-yl)methyl)-3-oxohexahydroimidazo[1,5-a]pyrazin-2(3H)-yl)phenyl)prop ionic Acid]",7 nM,> 150000 nM
"COC(=O)C1=C(CN2CCN3C(=O)N(c4ccc(CCC(=O)O)cc4)C[C@@H]3C2)NC(c2nccs2)=N[C@H]1c1ccc(Cl)cc1Cl [Example 24, 3-(4-((S)-7-(((R)-6-(2,4-dichlorophenyl)-5-(methoxycarbonyl)-2-(thiazol-2-yl)-3,6-dihydropyrimidin-4-yl)methyl)-3-oxohexahydroimidazo[1,5-a]pyrazin-2 (3H)-yl)phenyl)propionic Acid]",4 nM,> 150000 nM
"COC(=O)CCc1ccc(N2C[C@@H]3CN(CC4=C(C(=O)OC)[C@H](c5ccc(F)cc5Cl)N=C(c5nccs5)N4)CCN3C2=O)cc1 [Example 25, (R)-methyl 4-(2-chloro-4-fluorophenyl)-6-(((S)-2-(4-(3-methoxy-3-oxopropyl)phenyl)-3-oxohexahydroimidazo[1,5-a]pyrazin-7(1H)-yl)methyl)-2-(thiazol-2-yl)-1,4-dihydropyrimidine-5-carboxylate]",5 nM,> 150000 nM
"CCOC(=O)C1=C(CN2CCN3C(=O)N(c4ccc(CC(=O)O)cc4)C[C@@H]3C2)NC(c2nccs2)=N[C@H]1c1ccc(F)cc1Br [Example 26, 2-(4-((S)-7-(((R)-6-(2-bromo-4-fluorophenyl)-5-(ethoxycarbonyl)-2-(thiazol-2-yl)-3,6-dihydropyrimidin-4-yl)methyl)-3-oxohexahydroimidazo[1,5-a]pyrazin-2(3H)-yl)phenyl)acetic Acid]",8 nM,> 150000 nM
"COC(=O)C1=C(CN2CCN3C(=O)N(c4ccc(CC(=O)O)cc4)C[C@@H]3C2)NC(c2nccs2)=N[C@H]1c1ccc(Cl)cc1Cl [Example 27, 2-(4-((S)-7-(((R)-6-(2,4-dichlorophenyl)-5-(methoxycarbonyl)-2-(thiazol-2-yl)-3,6-dihydropyrimidin-4-yl)methyl)-3-oxohexahydroimidazo[,5-a]pyrazin-2(3H)-yl)phenyl)acetic Acid]",7 nM,> 150000 nM
CCOC(=O)C1=C(CN2CCN3C(=O)N(c4ccc(CC(C)(C)C(=O)O)cc4)C[C@@H]3C2)NC(c2nccs2)=N[C@H]1c1ccc(F)cc1Br [Example 28],5 nM,> 150000 nM
"CCOC(=O)C1=C(CN2CCN3C(=O)N(c4ccc(CC(C)(C)C(=O)O)cc4)C[C@@H]3C2)NC(c2nccs2)=N[C@H]1c1ccc(F)cc1Cl [Example 29, 3-(4-((S)-7-(((R)-6-(2-chloro-4-fluorophenyl)-5-(ethoxycarbonyl)-2-(thiazol-2-yl)-3,6-dihydropyrimidin-4-yl)methyl)-3-oxohexahydroimidazo[1,5-a]pyrazin-2(3H)-yl)phenyl)-2,2-dimethylpropionic Acid]",6 nM,> 150000 nM
"COC(=O)C1=C(CN2CCN3C(=O)N(c4ccc(C(C)=O)cc4)C[C@@H]3C2)NC(c2nccs2)=N[C@H]1c1ccc(F)cc1Cl [Example 31, (R)-methyl 6-(((S)-2-(4-acetylphenyl)-3-oxohexahydroimidazo[1,5-a]pyrazin-7(1H)-yl)methyl)-4-(2-chloro-4-fluorophenyl)-2-(thiazol-2-yl)-1,4-dihydropyrimidine-5-carboxy late]",4 nM,> 150000 nM
"COC(=O)C1=C(CN2CCN3C(=O)N(c4ccc(C(C)=O)cc4F)C[C@@H]3C2)NC(c2nccs2)=N[C@H]1c1ccc(F)cc1Cl [Example 32, (R)-methyl 6-(((S)-2-(4-acetyl-2fluorophenyl)-3-oxohexahydroimidazo[1,5-a]pyrazin-7(1H)-yl)methyl)-4-(2-chloro-4-fluorophenyl)-2-(thiazol-2-yl)-1,4-dihydropyrimidine-5-carboxylate]",6 nM,> 150000 nM
"COC(=O)C1=C(CN2CCN3C(=O)N(c4ccc(C(C)(C)C(=O)O)cc4F)C[C@@H]3C2)NC(c2nccs2)=N[C@H]1c1ccc(F)cc1Cl [Example 33, 2-(4-((S)-7-(((R)-6-(2-chloro-4-fluorophenyl)-5-(methoxycarbonyl)-2-(thiazol-2-yl)-3,6-dihydropyrimidin-4-yl)methyl)-3-oxohexahydroimidazo[1,5-a]pyrazin-2(3H)-yl)-3-fluorophenyl)-2-methylpropionic Acid]",25 nM,> 150000 nM
"COC(=O)C1=C(CN2CCN3C(=O)N(c4ccc(CCC(=O)O)cc4F)C[C@@H]3C2)NC(c2nccs2)=N[C@H]1c1ccc(F)cc1Cl [Example 34, 3-(4-((S)-7-(((R)-6-(2-chloro-4-fluorophenyl)-5-(methoxycarbonyl)-2-(thiazol-2-yl)-3,6-dihydropyrimidin-4-yl)methyl)-3-oxohexahydroimidazo[1,5-a]pyrazin-2(3H)-yl)-3-fluorophenyl)propionic Acid]",16 nM,> 150000 nM
"COC(=O)C1=C(CN2CCN3C(=O)N(c4cccc(CCC(=O)O)c4)C[C@@H]3C2)NC(c2nccs2)=N[C@H]1c1ccc(F)cc1Cl [Example 37, 3-(3-((S)-7-(((R)-6-(2-chloro-4-fluorophenyl)-5-(methoxycarbonyl)-2-(thiazol-2-yl)-3,6-dihydropyrimidin-4-yl)methyl)-3-oxohexahydroimidazo[1,5-a]pyrazin-2(3H)-yl)phenyl)propionic Acid]",5 nM,> 150000 nM
"COC(=O)C1=C(CN2CCN3C(=O)N(c4cccc(C(C)(C)C(=O)O)c4)C[C@@H]3C2)NC(c2nccs2)=N[C@H]1c1ccc(F)cc1Cl [Example 38, 2-(3-((S)-7-(((R)-6-(2-chloro-4-fluorophenyl)-5-(methoxycarbonyl)-2-(thiazol-2-yl)-3,6-dihydropyrimidin-4-yl)methyl)-3-oxohexahydroimidazo[1,5-a]pyrazin-2(3H)-yl)phenyl)-2-methylpropionic Acid]",15 nM,> 150000 nM
"COC(=O)C1=C(CN2CCN3C(=O)N(c4cccc(CC(=O)O)c4)C[C@@H]3C2)NC(c2nccs2)=N[C@H]1c1ccc(F)cc1Cl [Example 39, 2-(3-((S)-7-(((R)-6-(2-chloro-4-fluorophenyl)-5-(methoxycarbonyl)-2-(thiazol-2-yl)-3,6-dihydropyrimidin-4-yl)methyl)-3-oxohexahydroimidazo[1,5-a]pyrazin-2(3H)-yl)phenyl) acetic Acid]",29 nM,> 150000 nM
"COC(=O)C1=C(CN2CCN3C(=O)N(c4ccc(OC(C)(C)C(=O)O)cc4)C[C@@H]3C2)NC(c2nccs2)=N[C@H]1c1ccc(F)cc1Cl [Example 40, 2-(4-((S)-7-(((R)-6-(2-chloro-4-fluorophenyl)-5-(methoxycarbonyl)-2-(thiazol-2-yl)-3,6-dihydropyrimidin-4-yl)methyl)-3-oxohexahydroimidazo[1,5-a]pyrazin-2(3H)-yl)phenoxy)-2-methylpropionic Acid]",71 nM,> 150000 nM
"COCC(C)(C)NC(=O)CCc1ccc(N2C[C@@H]3CN(CC4=C(C(=O)OC)[C@H](c5ccc(F)cc5Cl)N=C(c5nccs5)N4)CCN3C2=O)cc1 [Example 44, (R)-methyl 4-(2-chloro-4-fluorophenyl)-6-(((S)-2-(4-(3-((1-methoxy-2-methylpropan-2-yl)amino)-3-oxopropyl)phenyl)-3-oxohexahydroimidazo[1,5-a]pyrazin-7(1H)-yl)methyl)-2-(thiazol-2-yl)-1,4-dihydropyrimidine-5-carboxylate]",10 nM,> 150000 nM
"COC(=O)C1=C(CN2CCN3C(=O)N(c4ccc(CCC(=O)O)cc4)C[C@@H]3C2)NC(c2nccn2C)=NC1c1ccc(F)cc1Cl (stereo partly drawn) [Example 45, 3-(4-((8aS)-7-((-6-(2-chloro-4-fluorophenyl)-5-(methoxycarbonyl)-2-(1-methyl-1H-imidazol-2-yl)-3,6-dihydropyrimidin-4-yl)methyl)-3-oxohexahydroimidazo[1,5-a]pyrazin-2(3H)-yl)phenyl)propionic Acid]",8 nM,> 150000 nM
